This note sets out measurements from patent publication US11439713B2, “Method for creating a renal injury model to screen molecules for the treatment of renal injury” (BAYER AKTIENGESELLSCHAFT, priority 2017, dated 2022).

“Also recorded” adds a separate entry of the source.

Holding throughout (format): in vivo
For one assay, the system named is C57Bl/6 mice. In words: AGISHA model with AngII as injury inducer (ACR in urine). The following applies: for ACR in urine collected for 4 hours after AngII bolus injections: vs NaCl control group; for ACR in urine collected for 4 hours after first AngII bolus injections, experimental day 1: vs NaCl group. From the text:
Five groups with 10-12 mice per group (C57Bl/6, Charles River Laboratories, 6-7 weeks old) were set for one experiment. After delivery, animals remained in a temperature- and light-controlled room with standardized mouse chow and water ad libitum for a one week acclimatization period, following guidelines of local governmental institutions (LANUV Germany). The groups were divided as follows (see FIG. 1): • 1. Control group without AngII bolus injection, but with control saline and additional (oral) administration of drug vehicle (10% ethanol, 40% solutol, 50% water or saline). • 2. AngII group, treated with AngII in normal saline, and drug vehicle. AngII administration occurred in two bolus injections (i.v.+s.c.) of 10 μg (5 μg i.v.+5 μg s.c.), 16 μg (8 μg i.v.+8 μg s.c.) and 20 μg (10 μg i.v.+10 μg s.c.) per mouse, where the first bolus was injected intravenously and the second bolus subcutaneously. The drug vehicle was administered orally.
3. Candidate groups 3 and 4: AngII injection and additional treatment with the investigated drug/drugs. For substance testing, drugs or appropriated vehicles were administered orally, via i.v., s.c., or i.p. Administration occurred prior to or after AngII-injection. For example, investigated drug/drugs were given orally 30 minutes before the induction of the injury. • 4. Group 5 is the positive control group Animals were injected with AngII and treated orally with Losartan 30 mg/kg. Losartan is an AngII receptor blocker AT1 (Pieter B M et al, Pharma. Rev., 1993, Kang P M et al, Progress in Cardiology, 1994).
After AngII injection animals were placed in metabolic cages (Technoplast, Italy) for urine collection for up to 4 hours. At the end of the experiment the urine was analyzed to quantify the ACR. More specifically, the collected urine was analyzed using an automatic analyzer for urinary albumin as well as urinary creatinine (Coban® Integra 400, Roche, Basel, SUI) or using the Mouse albumin ELISA kit (ABCAM, Cambridge, UK). […] The AGISHA model was performed in 3 identical cycles with a one-week break for recovery.
Negative and positive control experiment. To confirm the findings shown in FIG. 2-4, the mode of action in AGISHA was investigated. In the following experiment, three of the animal groups were pre-treated with three different drugs by oral application 30 minutes before administration of injury inducer (see FIG. 5). • 1) Enalapril 10 mg/kg, an angiotensin-converting enzyme (ACE) inhibitor, is standard of care for high blood pressure. It was used as positive modulator control 1 of the renin-angiotensin system (RAS) in the AGISHA model. • 2) Losartan potassium, 30 mg/kg, angiotensin II type I receptor (AT1) antagonist, standard of care for high blood pressure (Kang et al, 1994; Sica D A et al, Clin Parmacokinet., 2005) was used as positive modulator control 2 of the RAS system in the AGISHA model. • 3) Tivozanib, 3 mg/kg, vascular endothelial grow factor receptor tyrosine kinase inhibitor (Campas C et al, Drugs Fut., 2009) was used as negative modulator of the RAS system during AGISHA model. […]
The experiment was performed as described in example 5, except that the sGC stimulator 5-cyclopropyl-2-[1-(2-fluorobenzyl)-1H-pyrazolo[3,4-b]pyridin-3-yl]pyrimidin-4-amine was used for treatment. […] Losartan (30 mg/kg) was used as positive control.

Assay [1] concerns mice. In words: GFR-based model with AVP and Sinestrin-FITC. The following applies: pre-treatment with Losartan 30 mg/kg; AVP 35 μg. As to the method: A similar setup (FIG. 23) was used with AVP (Sigma-Aldrich, Mo.) at a dose of 35 μg, i.e. using a first bolus with 15 μg AVP, injected i.v. in combination with Sinestrin-FITC 150 mg/kg (50 ul+50 ul) and using a second bolus of 20 μg AVP, 100 uL, injected i.v. As before GFR, was decreased by AVP compared with the control group.

The subject of assay [2] is mice. In words: GFR-based model with AngII and Sinestrin-FITC (GFR acute modulation). The following applies: for GFR 2 hrs after AngII bolus injection: vs control group. From the text:
Acute GFR modulation is a relevant phenomenon in the field of nephrology (Fergusan and […], Clin. Chem., 58(4), 2012, p. 680-689). GFR is the major readout parameter for chronic kidney disease (CKD) stage assessment (Lopez-Giacoman and Madero, World J Nephrol. 4(1), 2015, 57-73). The GFR is also a very stable and robust physiological parameter that is subject to positive and negative feedback regulation. The following protocol and experimental setup (FIG. 21) was established to model acute GFR modulation. 1. Control group without AngII bolus injection, but with control saline (0.9%)+[…] 150 mg/kg and additional s c administration of 0.9% NaCl (100 μl+100 μl) 2. AngII group, treated with AngII in two bolus injections: First bolus of 20 μg/mouse of AngII in normal saline administered in combination with […] 150 mg/kg, 50 μl+50 μl, injected via tail vein. Second bolus injected s.c. comprising 20 μg AngII, 100 μl. 3. Losartan group was treated orally with 30 mg/kg of Losartan Potassium, 30 min prior to the AngII injury. AngII injury occurred in two bolus injections as described for the AngII group (total 40 μg). 1. Control group without AngII bolus injection, but with control saline (0.9%)+[…] 150 mg/kg and additional s.c. administration of 0.9% NaCl (100 μl+100 μl) 2. AngII group, treated with AngII in two bolus injections: First bolus of 20 μg/mouse of AngII in normal saline administered in combination with […] 150 mg/kg, 50 μl+50 μl, injected via tail vein. Second bolus injected s.c. comprising 30 μg AngII, 100 μl. 3. Losartan group was treated orally with 30 mg/kg of Losartan Potassium, 30 min prior to the AngII injury. AngII injury occurred in two bolus injections as described for the AngII group (total 50 μg). For substance testing, animals were pre-treated with the respective drugs or vehicles 30 min before AngII-injection, via oral gavage, s.c, i.p., or tail vein injection. Subsequently, […] mix bolus was administered to the animals with the tracer (FIG. 21).

In another assay the test system is C57Bl/6/J male mice. In words: GFBI test model with AngII (transcutaneous fluorescence of Ficoll-FITC). The following applies: for Half-life of the fluorescent molecule in the blood 2 h after AngII bolus injection: vs control. As to the method:
After delivery, C57Bl/6/J male mice remained in a temperature- and light-controlled room with standardized mouse chow and water ad libitum for a one week acclimatization period, following guidelines of local governmental institutions (LANUV Germany). C57Bl/6/J mice (6-7 weeks) received an intravenous mixture of FITC-FICOLL 70 kDa (Sigma) and 10 μg AngII mix 100 μL, followed by a 10 μg (100 μL) subcutaneous AngII bolus as described in example 1. The groups were divided as follows, see FIG. 17:
1. Control group without AngII bolus injection, but with control saline 0.9%+Ficoll-FITC 150 mg/kg and additional s c administration of a bolus of NaCl 0.9%.
2. AngII group, treated with AngII in two bolus injections (10 μg/mouse of AngII+Ficoll-FITC, 150 mg/kg, both dissolved in 0.9% NaCl, first bolus injected i.v. via tail vein (5 μg AngII) and a second subcutaneous bolus injection (5 μg AngII).
3. AngII group, treated with AngII in two bolus injections (20 μg/mouse total AngII+Ficoll-FITC, 150 mg/kg 150 mg/kg, both dissolved in 0.9% NaCl, first bolus injected i.v. via tail vein (10 μg AngII) and a second subcutaneous bolus injection (10 μg AngII).
TF of the FICOLL-FITC was detected via the transcutaneous method developed by MediBeacon Inc. (MediBeacon Inc., Mo., USA). In brief: all experimental animals were shaved with standard mask anesthesia 1 h before the determination of TF for the FICOLL-FITC Immediately after the injury induction the portable transcutaneous measurement device was placed on the left dorsal back side of the animal for 2 hours. The results were analyzed with the MediBeacon Inc. software. […] The decay of the Ficoll-FITC dye was visualized as a flat line, with a half-life of ca. 396 minutes.

Setting [3] is: oral 30 minutes before AngII 10 μg i.v.+10 μg s.c., Enalapril 10 mg/kg, Losartan potassium 30 mg/kg, Tivozanib 3 mg/kg, FIG. 6.
Where [4] appears, read: pre-treatment orally, AngII 10 μg i.v.+10 μg s.c., OGT 2115 40 mg/kg, Losartan Potassium 30 mg/kg, FIG. 10.

With `O=C(O)CCCCN(CCc1cc(F)ccc1OCc1ccc(-c2ccc(C(F)(F)F)cc2)cc1)Cc1ccc(C(=O)O)cc1` [4-({(4-carboxybutyl)[2-(5-fluoro-2-{[4′-(trifluoromethyl)biphenyl-4-yl]methoxy}phenyl)ethyl]amino}methyl)benzoic acid], in the assay with C57Bl/6 mice (3 mg/kg orally prior to AngII 10 μg i.v.+10 μg s.c.), the “Reduction of ACR compared with the control group” value is 71%. Further, the “AngII induced ACR, mean±SD” value in the assay on C57Bl/6 mice (3 mg/kg orally prior to AngII 10 μg i.v.+10 μg s.c., urine 4 hours) stood at 35 ± 26 µg/mg.
As for `CCOC(=O)[C@H](CCc1ccccc1)N[C@@H](C)C(=O)N1CCC[C@H]1C(=O)O` [Enalapril], the “Effect on ACR induced by AngII” value in the assay on C57Bl/6 mice (setting [3]) is on record as “significantly reduced”.
Turning to `CCCCc1nc(Cl)c(CO)n1Cc1ccc(-c2ccccc2-c2nn[nH]n2)cc1` [Losartan], in the assay with mice [1], the “Effect on AVP induced loss of GFR” value is “did not restore the normal GFR; also recorded: did not restore or prevent the AVP induced loss of GFR”. Further, the “Reduction of AngII induced ACR” value in the assay on C57Bl/6 mice (Losartan 30 mg/kg orally, positive control, AngII 10 μg i.v.+10 μg s.c.) is listed as “around 90%”. Besides, the “Effect on AngII-induced ACR induction” value in the assay on C57Bl/6 mice (Losartan 30 mg/kg orally, FIG. 2 experiment) is “AngII bolus had no effect on ACR; also recorded: prevents AngII-induced ACR induction”. For the same compound, the “Effect on ACR induced by AngII” value with C57Bl/6 mice (setting [3]) is listed as “highly significant reduction of AngII induced injury”; with C57Bl/6 mice (oral 30 minutes before AngII 10 μg i.v.+10 μg s.c., Enalapril 10 mg/kg, Losartan potassium 30 mg/kg, Tivozanib 3 mg/kg, FIG. 6, listed as Losartan potassium), “strongest effect”; in the assay on C57Bl/6 mice (setting [4]), “highly significant reduction of AngII induced injury”. Moreover, the “Effect on AngII induced loss of GFR” value is reported as “AngII bolus had no effect on the GFR; also recorded: able to completely reverse the effect” in the assay on mice [2] (Losartan Potassium 30 mg/kg orally 30 min prior to AngII total 40 μg) and “restored the GFR; also recorded: significant recovery of AngII induced loss of GFR” in the assay on mice [2] (Losartan Potassium 30 mg/kg orally 30 min prior to AngII total 50 μg).
Turning to `O=C(O)Cc1ccc2oc(-c3ccc(NC(=O)/C=C/c4ccc(Br)cc4)c(F)c3)nc2c1` [OGT2115], in the assay on C57Bl/6 mice (setting [4]), the “Effect on ACR induced by AngII” value was “significantly reduced”.
`COc1cc2nccc(Oc3ccc(NC(=O)Nc4cc(C)on4)c(Cl)c3)c2cc1OC` [Tivozanib]: in the assay with C57Bl/6 mice (setting [3]), the “Effect on ACR induced by AngII” value is recorded as “no effect on ACR induced by AngII”.
With “Asp-Arg-Val-Tyr-Ile-His-Pro-Phe (DRVYIHPF; printed: Asp-Arg-Val-Tyr-Ile-His-Pro-Phe) [AngII, human angiotensin II peptide hormone, used as renal injury inducer]”, the “Half-life of the fluorescent molecule in the blood 2 h after AngII bolus injection” value in the assay on C57Bl/6/J male mice (AngII 10 μg) and in the assay on C57Bl/6/J male mice (AngII 20 μg) was “decrease in half-life of the fluorescent molecule was significant” throughout. In addition, in the assay with C57Bl/6/J male mice (animals treated with AngII, control (0.9% NaCl) ca. 396 minutes), the “Half-life of FICOLL-FITC transcutaneous fluorescence, representative curve” value is reported as “ca. 180 min”. Moreover, the “ACR in urine collected for 4 hours after AngII bolus injections” value with C57Bl/6 mice (AngII 8 μg i.v.+8 μg s.c.) is given as “significant induction of ACR”; in the assay with C57Bl/6 mice (AngII 10 μg i.v.+10 μg s.c.), “significant induction of ACR; also recorded: significant increase of ACR”. In addition, the “ACR on third experimental day after changed order of stimuli” value in the assay on C57Bl/6 mice (cross AGISHA, AngII 5 μg dose (group 1) and 10 μg dose (group 2)) is “dose dependent increase of injury”. For the same compound, the “ACR in urine collected for 4 hours after first AngII bolus injections, experimental day 1” value is reported as “significantly increased” in the assay with C57Bl/6 mice (cross AGISHA, AngII 5 μg i.v.+5 μg s.c.) and “significantly increased” in the assay with C57Bl/6 mice (cross AGISHA, AngII 10 μg i.v.+10 μg s.c.). The “ACR on day 2, 24 hours after first induction of acute glomerular injury” value in the assay with C57Bl/6 mice (cross AGISHA, after AngII 5 μg or 10 μg dose) is given as “For none of the groups the analysis shows a detectable ACR”. Further, the “GFR 2 hrs after AngII bolus injection” value in the assay with mice [2] (total 40 μg AngII (20 μg i.v.+20 μg s.c.)) is “decreased but not significantly decreased; also recorded: decrease in GFR”; in the assay on mice [2] (total 50 μg AngII (20 μg i.v.+30 μg s.c.)), “highly significant reduction of the GFR; also recorded: significantly reduced”.
